Assay results: PubChem BioAssay AID328 (DTP/NCI, 2004)
Where “and” joins values, the source holds several entries; their conditions need not be identical. Identical values can stand only once. Inconclusive results and toxic doses are left out. Rule for the calls: active = survival T/C of 150% or more; inactive = T/C below 125% in these data.

Test system: BDF1 mice, P388 leukemia ip, median survival T/C
Assay: NCI In Vivo Anticancer Drug Screen. Data for tumor model P388 Leukemia (intraperitoneal) in B6D2F1 (BDF1) mice
Settings: endpoint: median survival time, higher = longer survival
Outline: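 In tumour-bearing mice, survival after compound treatment is set against the vehicle group and given as a quotient.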

[1] = dose: 2.0 mg/kg/injection, schedule: Q01DX009 (ip), vehicle: saline
[2] = dose: 100.0 mg/kg/injection, schedule: Q01DX001 (ip), vehicle: saline with Tween-80
[3] = dose: 200.0 mg/kg/injection, schedule: Q01DX001 (ip), vehicle: saline with Tween-80
[4] = dose: 400.0 mg/kg/injection, schedule: Q01DX001 (ip), vehicle: saline with Tween-80
[5] = dose: 50.0 mg/kg/injection, schedule: Q01DX009 (ip), vehicle: saline with Tween-80
[6] = dose: 50.0 mg/kg/injection, schedule: Q04DX003 (ip), vehicle: saline with Tween-80
[7] = dose: 100.0 mg/kg/injection, schedule: Q01DX009 (ip), vehicle: saline with Tween-80
[8] = dose: 100.0 mg/kg/injection, schedule: Q04DX003 (ip), vehicle: saline with Tween-80
[9] = dose: 200.0 mg/kg/injection, schedule: Q01DX009 (ip), vehicle: saline with Tween-80
[10] = dose: 200.0 mg/kg/injection, schedule: Q04DX003 (ip), vehicle: saline with Tween-80

Measured: T/C

O=[As]O
inactive: [1] 115 % of control | dose: 4.0 mg/kg/injection, schedule: Q01DX009 (ip), vehicle: saline 123 % of control
active: dose: 8.0 mg/kg/injection, schedule: Q01DX009 (ip), vehicle: saline 150 % of control

O=C(Nc1ccc(F)cc1)Nc1cccc2ccccc12
inactive: [2] 90 % of control | [3] 90 % of control | [4] 90 % of control

COc1cccc2c1C(=O)c1c(O)c3c(c(O)c1C2=O)CC(O)(C(C)=O)CC3OC1CC(NC(=O)CNC(=O)CN(C)C)C(O)C(C)O1 (centres undefined)
inactive: dose: 1.56 mg/kg/injection, schedule: Q01DX009 (ip), vehicle: water 101 % of control | dose: 3.13 mg/kg/injection, schedule: Q01DX009 (ip), vehicle: water 92 % of control | dose: 6.25 mg/kg/injection, schedule: Q01DX009 (ip), vehicle: water 101 % of control | dose: 12.5 mg/kg/injection, schedule: Q01DX009 (ip), vehicle: water 91 % of control

Nc1ccc(NS(=O)(=O)c2ccccc2)nc1
inactive: dose: 100.0 mg/kg/injection, schedule: Q01DX009 (ip), vehicle: Klucel (hydroxypropylcellulose) (HPC) 100 % of control | dose: 100.0 mg/kg/injection, schedule: Q04DX003 (ip), vehicle: Klucel (hydroxypropylcellulose) (HPC) 100 % of control | dose: 200.0 mg/kg/injection, schedule: Q01DX009 (ip), vehicle: Klucel (hydroxypropylcellulose) (HPC) 100 % of control | dose: 200.0 mg/kg/injection, schedule: Q04DX003 (ip), vehicle: Klucel (hydroxypropylcellulose) (HPC) 100 % of control | dose: 400.0 mg/kg/injection, schedule: Q01DX009 (ip), vehicle: Klucel (hydroxypropylcellulose) (HPC) 95 % of control | dose: 400.0 mg/kg/injection, schedule: Q04DX003 (ip), vehicle: Klucel (hydroxypropylcellulose) (HPC) 100 % of control

C=C(C)C(=O)OCC1CO1 (centres undefined)
inactive: dose: 25.0 mg/kg/injection, schedule: Q01DX009 (ip), vehicle: water 112 % of control | dose: 50.0 mg/kg/injection, schedule: Q01DX009 (ip), vehicle: water 96 % of control | dose: 50.0 mg/kg/injection, schedule: Q01DX010 (ip), vehicle: saline 100 % of control | dose: 100.0 mg/kg/injection, schedule: Q01DX009 (ip), vehicle: water 99 % of control | dose: 100.0 mg/kg/injection, schedule: Q01DX010 (ip), vehicle: saline 100 % of control | dose: 200.0 mg/kg/injection, schedule: Q01DX009 (ip), vehicle: water 122 % of control | dose: 200.0 mg/kg/injection, schedule: Q01DX010 (ip), vehicle: saline 104 % of control

CCCCCCCC[N+]12CC[N+](CCCCCCCC)(CC1)CC2
inactive: dose: 3.13 mg/kg/injection, schedule: Q01DX009 (ip), vehicle: saline 106 % of control | dose: 6.25 mg/kg/injection, schedule: Q01DX009 (ip), vehicle: saline 103 % of control

CCOC(=O)/C(=C\c1ccc2c(c1)OCO2)NC(=O)c1ccccc1
inactive: dose: 100.0 mg/kg/injection, schedule: Q01DX001 (ip), vehicle: Klucel (hydroxypropylcellulose) (HPC) 104 % of control | dose: 100.0 mg/kg/injection, schedule: Q04DX003 (ip), vehicle: saline 112 % of control | dose: 200.0 mg/kg/injection, schedule: Q01DX001 (ip), vehicle: Klucel (hydroxypropylcellulose) (HPC) 100 % of control | dose: 200.0 mg/kg/injection, schedule: Q04DX003 (ip), vehicle: saline 95 % of control | dose: 400.0 mg/kg/injection, schedule: Q01DX001 (ip), vehicle: Klucel (hydroxypropylcellulose) (HPC) 100 % of control | dose: 400.0 mg/kg/injection, schedule: Q04DX003 (ip), vehicle: saline 95 % of control

CS(=O)(=O)Nc1ccc(NS(C)(=O)=O)cc1
inactive: [2] 112 % of control | [3] 100 % of control | [4] 100 % of control

OC1(O)CCN(Cc2ccccc2)CC1
inactive: [5] 122 % of control | [6] 95 % of control | [7] 104 % of control | [8] 100 % of control | [9] 95 % of control | [10] 105 % of control

CNC(=N)c1ccc(NC(=N)c2ccc(NC(=N)c3ccc(NC(=O)Nc4ccc(C#N)cc4)cc3)cc2)cc1
active: dose: 14.0 mg/kg/injection, schedule: Q04DX003 (ip), vehicle: saline with Tween-80 163 % of control | dose: 16.0 mg/kg/injection, schedule: Q01DX009 (ip), vehicle: saline with Tween-80 157 % of control | dose: 24.0 mg/kg/injection, schedule: Q01DX009 (ip), vehicle: saline with Tween-80 173 % of control and 200 % of control | dose: 33.0 mg/kg/injection, schedule: Q04DX003 (ip), vehicle: saline with Tween-80 250 % of control and 168 % of control and 200 % of control | dose: 37.0 mg/kg/injection, schedule: Q01DX009 (ip), vehicle: saline with Tween-80 230 % of control | dose: 37.5 mg/kg/injection, schedule: Q01DX009 (ip), vehicle: saline with Tween-80 153 % of control | [6] 250 % of control and 186 % of control | dose: 75.0 mg/kg/injection, schedule: Q04DX003 (ip), vehicle: saline with Tween-80 250 % of control and 172 % of control | dose: 112.0 mg/kg/injection, schedule: Q04DX003 (ip), vehicle: saline with Tween-80 216 % of control
inactive: dose: 3.0 mg/kg/injection, schedule: Q04DX003 (ip), vehicle: saline with Tween-80 123 % of control | [5] 103 % of control

CC(C)NCC(=O)c1ccc(O)c(O)c1
inactive: [7] 109 % of control | [8] 100 % of control | [10] 100 % of control | dose: 400.0 mg/kg/injection, schedule: Q04DX003 (ip), vehicle: saline with Tween-80 100 % of control

CCCCCCCC[N+](C)(CCCCCCCC)CCCCCCCC
inactive: dose: 0.12 mg/kg/injection, schedule: Q01DX009 (ip), vehicle: saline 108 % of control | dose: 0.18 mg/kg/injection, schedule: Q01DX009 (ip), vehicle: saline 116 % of control | dose: 0.42 mg/kg/injection, schedule: Q01DX009 (ip), vehicle: saline 95 % of control and 100 % of control | dose: 0.96 mg/kg/injection, schedule: Q01DX009 (ip), vehicle: saline 108 % of control and 121 % of control | dose: 1.0 mg/kg/injection, schedule: Q01DX009 (ip), vehicle: saline 100 % of control | dose: 1.3 mg/kg/injection, schedule: Q01DX009 (ip), vehicle: saline 112 % of control | [1] 100 % of control | dose: 2.1 mg/kg/injection, schedule: Q01DX009 (ip), vehicle: saline 120 % of control | dose: 2.32 mg/kg/injection, schedule: Q04DX003 (ip), vehicle: saline 104 % of control | dose: 3.1 mg/kg/injection, schedule: Q01DX009 (ip), vehicle: saline 95 % of control | dose: 4.65 mg/kg/injection, schedule: Q04DX003 (ip), vehicle: saline 95 % of control | dose: 6.5 mg/kg/injection, schedule: Q01DX001 (ip), vehicle: saline 100 % of control | dose: 13.0 mg/kg/injection, schedule: Q01DX001 (ip), vehicle: saline 100 % of control
active: dose: 0.28 mg/kg/injection, schedule: Q01DX009 (ip), vehicle: saline 166 % of control | dose: 0.43 mg/kg/injection, schedule: Q01DX009 (ip), vehicle: saline 155 % of control

CCCOC1=C(N2CC2)C(=O)C(OCCC)=C(N2CC2)C1=O
inactive: dose: 2.2 mg/kg/injection, schedule: Q04DX003 (ip), vehicle: saline with Tween-80 117 % of control
active: dose: 5.55 mg/kg/injection, schedule: Q04DX003 (ip), vehicle: saline with Tween-80 200 % of control | dose: 7.5 mg/kg/injection, schedule: Q04DX003 (ip), vehicle: saline with Tween-80 165 % of control | dose: 8.33 mg/kg/injection, schedule: Q04DX003 (ip), vehicle: saline with Tween-80 163 % of control and 200 % of control | dose: 12.5 mg/kg/injection, schedule: Q04DX003 (ip), vehicle: saline with Tween-80 186 % of control and 200 % of control and 218 % of control | dose: 18.7 mg/kg/injection, schedule: Q04DX003 (ip), vehicle: saline with Tween-80 245 % of control and 260 % of control | dose: 25.0 mg/kg/injection, schedule: Q04DX003 (ip), vehicle: saline with Tween-80 163 % of control

Cn1c(=O)c2c(nc(CCCCc3nc4c(c(=O)n(C)c(=O)n4C)n3C)n2C)n(C)c1=O
inactive: [7] 91 % of control | [9] 88 % of control
